{"source": "patent US9981918B2", "about": "“Kynurenine-3-monooxygenase inhibitors, pharmaceutical compositions, and methods of use thereof” (CHDI Foundation, Inc., priority 2011, dated 2018)", "data": [{"test_system": "KMO", "test": "KMO inhibition: L-Kynurenine hydroxylation to 3-Hydroxy-Kynurenine monitored by LC/MS", "type": "biochemical", "settings": "compound at 10 uM; footnote: some portion of activity of amides may be due to contribution of acid precursor", "experimental": "A generalized procedure for monitoring L-Kynurenine (KYN) hydroxylation to form product 3-Hydroxy-Kynurenine (30H-KYN) by LC/MS is described below. Product is quantified by multiple reaction monitoring using MS.\nA method of monitoring L-Kynurenine (KYN) hydroxylation to form product 3-Hydroxy-Kynurenine (30H-KYN) by LC/MS is described below. Product is quantified by multiple reaction monitoring.\n• Compound: Stock concentrations: 10 mM in 100% DMSO • Enzyme: KMO enzyme prepared at Evotec via mitochondria isolation from CHO-GST HIS KMO cells • Substrate: L-Kynurenine (Sigma: Cat# K3750) • [stock concentration: 10 mM in 100 mM potassium phosphate buffer, pH 7.4]\nA method of monitoring L-Kynurenine (KYN) hydroxylation to form 3-Hydroxy-Kynurenine (30H-KYN) by LC/MS is described. Product is quantified by multiple reaction monitoring (MRM method).", "units": {"% Inhibition at 10 uM*": "%"}, "values": [{"smiles": "CCC(C)Oc1ccc(-c2ccnc(C(=O)O)c2)cc1Cl", "note": "(stereo in doubt) [listing 1 of 2 here]", "% Inhibition at 10 uM*": 50}, {"smiles": "CCC(C)Oc1ccc(-c2ccnc(C(=O)O)c2)cc1Cl", "note": "(stereo in doubt) [listing 2 of 2 here]", "% Inhibition at 10 uM*": 82}, {"smiles": "CCC(C)Oc1ccc(-c2cc(C(=O)O)ncn2)cc1Cl", "note": "(stereo in doubt) [6-(4-(R)-sec-Butoxy-3-chloro-phenyl)-pyrimidine-4-carboxylic acid]", "% Inhibition at 10 uM*": 100}, {"smiles": "CCC(C)Oc1ccc(-c2cc(C(=O)O)ncn2)cc1Cl", "note": "(stereo in doubt) [6-(4-(S)-sec-Butoxy-3-chloro-phenyl)-pyrimidine-4-carboxylic acid]", "% Inhibition at 10 uM*": 100}, {"smiles": "O=C(O)c1cc(-c2ccc(OC3CC3)c(Cl)c2)ccn1", "note": "[4-(3-Chloro-4-cyclopropoxy-phenyl)-pyridine-2-carboxylic acid]", "% Inhibition at 10 uM*": 100}, {"smiles": "CC(C)Oc1ccc(-c2ccnc(C(=O)O)c2)cc1Cl", "note": "[4-(3-Chloro-4-isopropoxy-phenyl)-pyridine-2-carboxylic acid]", "% Inhibition at 10 uM*": 80}, {"smiles": "O=C1OCCc2c1ncnc2-c1ccc(OC2CC2)c(Cl)c1", "note": "[4-(3-chloro-4-cyclopropoxyphenyl)-5H,6H,8H-pyrano[3,4-d]pyrimidin-8-one]", "% Inhibition at 10 uM*": 100}, {"smiles": "O=C1OCc2c1ncnc2-c1ccc(OC2CC2)c(Cl)c1", "note": "[4-(3-chloro-4-cyclopropoxyphenyl)-5H,7H-furo[3,4-d]pyrimidin-7-one]", "% Inhibition at 10 uM*": 100}, {"smiles": "O=C(O)c1cc(-c2ccc3c(c2)OCO3)ncn1", "note": "[6-(2H-1,3-benzodioxol-5-yl)pyrimidine-4-carboxylic acid]", "% Inhibition at 10 uM*": 101}, {"smiles": "Nc1cc(-c2cc(C(=O)O)ncn2)ccc1Cl", "note": "[6-(3-Amino-4-chloro-phenyl)-pyrimidine-4-carboxylic acid]", "% Inhibition at 10 uM*": 101.01}, {"smiles": "O=C(O)c1cc(-c2ccc(OC3CC3)c(Cl)c2)ncn1", "note": "[6-(3-Chloro-4-cyclopropoxy-phenyl)-pyrimidine-4-carboxylic acid]", "% Inhibition at 10 uM*": 100}, {"smiles": "Cc1nc(C(=O)O)cc(-c2ccc(OC(C)C)c(Cl)c2)n1", "note": "[6-(3-Chloro-4-isopropoxy-phenyl)-2-methyl-pyrimidine-4-carboxylic acid]", "% Inhibition at 10 uM*": 70}, {"smiles": "CC(C)c1ccc(-c2cc(C(=O)O)ncn2)cc1Cl", "note": "[6-(3-Chloro-4-isopropyl-phenyl)-pyrimidine-4-carboxylic acid]", "% Inhibition at 10 uM*": 100}, {"smiles": "CC(C)c1ccc(-c2cc(C(=O)O)ncn2)cc1F", "note": "[6-(3-Fluoro-4-isopropyl-phenyl)-pyrimidine-4-carboxylic acid]", "% Inhibition at 10 uM*": 85}, {"smiles": "Cc1nc(C(=O)O)cc(-c2ccc(C)c(F)c2)n1", "note": "[6-(3-Fluoro-4-methyl-phenyl)-2-methyl-pyrimidine-4-carboxylic acid]", "% Inhibition at 10 uM*": 96}, {"smiles": "O=C(O)c1cc(-c2ccc(C(=O)C3CC3)c(Cl)c2)ncn1", "note": "[6-(3-chloro-4-cyclopropanecarbonylphenyl)pyrimidine-4-carboxylic acid]", "% Inhibition at 10 uM*": 101}, {"smiles": "O=C(O)c1ncnc(-c2ccc(OC3CC3)c(Cl)c2)c1CO", "note": "[6-(3-chloro-4-cyclopropoxyphenyl)-5-(hydroxymethyl)pyrimidine-4-carboxylic acid]", "% Inhibition at 10 uM*": 100}, {"smiles": "Cc1c(C(=O)O)ncnc1-c1ccc(OC2CC2)c(Cl)c1", "note": "[6-(3-chloro-4-cyclopropoxyphenyl)-5-methylpyrimidine-4-carboxylate]", "% Inhibition at 10 uM*": 100}, {"smiles": "Cc1nc2c(Cl)cc(-c3cc(C(=O)O)ncn3)cc2o1", "note": "[6-(4-chloro-2-methyl-1,3-benzoxazol-6-yl)pyrimidine-4-carboxylic acid]", "% Inhibition at 10 uM*": 102}, {"smiles": "O=C(O)c1cc(-c2cc(Cl)c3occc3c2)ncn1", "note": "[6-(7-Chloro-benzofuran-5-yl)-pyrimidine-4-carboxylic acid]", "% Inhibition at 10 uM*": 100}, {"smiles": "O=C(O)c1cc(-c2cc(Cl)c3c(c2)CCO3)ncn1", "note": "[6-(7-chloro-2,3-dihydro-1-benzofuran-5-yl)pyrimidine-4-carboxylic acid]", "% Inhibition at 10 uM*": 102}, {"smiles": "O=C(O)c1cc(-c2cc(Cl)c3oc(C4CC4)nc3c2)ncn1", "note": "[6-(7-chloro-2-cyclopropyl-1,3-benzoxazol-5-yl)pyrimidine-4-carboxylic acid]", "% Inhibition at 10 uM*": 100}, {"smiles": "Cc1nc2cc(-c3cc(C(=O)O)ncn3)cc(Cl)c2o1", "note": "[6-(7-chloro-2-methyl-1,3-benzoxazol-5-yl)pyrimidine-4-carboxylic acid]", "% Inhibition at 10 uM*": 102}, {"smiles": "Cn1c(=O)oc2c(Cl)cc(-c3cc(C(=O)O)ncn3)cc21", "note": "[6-(7-chloro-3-methyl-2-oxo-2,3-dihydro-1,3-benzoxazol-5-yl)pyrimidine-4-carboxylic acid]", "% Inhibition at 10 uM*": 100}, {"smiles": "O=C(O)c1cc(-c2cc(Cl)c3c(c2)CCCO3)ncn1", "note": "[6-(8-Chloro-chroman-6-yl)-pyrimidine-4-carboxylic acid]", "% Inhibition at 10 uM*": 100}, {"smiles": "O=C(O)c1cc(-c2cc(Cl)c3c(c2)CCCN3)ncn1", "note": "[6-(8-chloro-1,2,3,4-tetrahydroquinolin-6-yl)pyrimidine-4-carboxylate]", "% Inhibition at 10 uM*": 100}, {"smiles": "CN1CCCc2cc(-c3cc(C(=O)O)ncn3)cc(Cl)c21", "note": "[6-(8-chloro-1-methyl-1,2,3,4-tetrahydroquinolin-6-yl)pyrimidine-4-carboxylic acid]", "% Inhibition at 10 uM*": 100}, {"smiles": "O=C([O-])c1cc(-c2cc(Cl)c3ncccc3c2)ncn1.[Na+]", "note": "[6-(8-chloroquinolin-6-yl)pyrimidine-4-carboxylate]", "% Inhibition at 10 uM*": 100}, {"smiles": "O=C(O)c1cc(-c2cc(Cl)c3nccnc3c2)ncn1", "note": "[6-(8-chloroquinoxalin-6-yl)pyrimidine-4-carboxylic acid]", "% Inhibition at 10 uM*": 102}, {"smiles": "O=C(O)c1cc(-c2ccc3ncccc3c2)ncn1", "note": "[6-Quinolin-6-yl-pyrimidine-4-carboxylic acid]", "% Inhibition at 10 uM*": 100}, {"smiles": "CC(Oc1ccc(-c2cc(C(=O)O)ncn2)cc1Cl)C(F)(F)F", "note": "(stereo not drawn) [6-[3-Chloro-4-(2,2,2-trifluoro-1-methyl-ethoxy)-phenyl]-pyrimidine-4-carboxylic acid]", "% Inhibition at 10 uM*": 94}, {"smiles": "O=C(O)c1cc(-c2ccc(OCCN3CCCCC3)c(Cl)c2)ncn1", "note": "[6-[3-Chloro-4-(2-piperidin-1-yl-ethoxy)-phenyl]-pyrimidine-4-carboxylic acid]", "% Inhibition at 10 uM*": 90}, {"smiles": "O=C(O)c1cc(-c2ccc(OC3CCNC3)c(Cl)c2)ncn1", "note": "(stereo not drawn) [6-[3-Chloro-4-(pyrrolidin-3-yloxy)-phenyl]-pyrimidine-4-carboxylic acid]", "% Inhibition at 10 uM*": 80}, {"smiles": "COC(C)c1ccc(-c2cc(C(=O)O)ncn2)cc1Cl", "note": "(stereo not drawn) [6-[3-chloro-4-(1-methoxyethyl)phenyl]pyrimidine-4-carboxylic acid]", "% Inhibition at 10 uM*": 101}, {"smiles": "O=C(O)c1cc(-c2ccc(NC3CC3)c(Cl)c2)ncn1", "note": "[6-[3-chloro-4-(cyclopropylamino)phenyl]pyrimidine-4-carboxylic acid]", "% Inhibition at 10 uM*": 101}, {"smiles": "COCc1ccc(-c2cc(C(=O)O)ncn2)cc1Cl", "note": "[6-[3-chloro-4-(methoxymethyl)phenyl]pyrimidine-4-carboxylic acid]", "% Inhibition at 10 uM*": 105}, {"smiles": "CSc1ccc(-c2cc(C(=O)O)ncn2)cc1Cl", "note": "[6-[3-chloro-4-(methylsulfanyl)phenyl]pyrimidine-4-carboxylic acid]", "% Inhibition at 10 uM*": 103}, {"smiles": "C[S+]([O-])c1ccc(-c2cc(C(=O)O)ncn2)cc1Cl", "note": "(stereo not drawn) [6-[3-chloro-4-(methylsulfinyl)phenyl]pyrimidine-4-carboxylic acid]", "% Inhibition at 10 uM*": 100}, {"smiles": "CS(=O)(=O)c1ccc(-c2cc(C(=O)O)ncn2)cc1Cl", "note": "[6-[3-chloro-4-(methylsulfonyl)phenyl]pyrimidine-4-carboxylic acid]", "% Inhibition at 10 uM*": 100}, {"smiles": "O=C(Nc1cccnc1)c1cc(-c2ccc(Cl)c(OC3CCOC3)c2)ncn1", "note": "(stereo not drawn) [6-[4-Chloro-3-(tetrahydro-furan-3-yloxy)-phenyl]-pyrimidine-4-carboxylic acid pyridin-3-ylamide]", "% Inhibition at 10 uM*": 88.39}, {"smiles": "CN(C)Cc1ccc(-c2cc(C(=O)O)ncn2)cc1Cl", "note": "[6-{3-chloro-4-[(dimethylamino)methyl]phenyl}pyrimidine-4-carboxylic acid]", "% Inhibition at 10 uM*": 65}, {"smiles": "O=C(O)c1cc(-c2ccc(C(O)C3CC3)c(Cl)c2)ncn1", "note": "(stereo not drawn) [6-{3-chloro-4-[cyclopropyl(hydroxy)methyl]phenyl}pyrimidine-4-carboxylic acid]", "% Inhibition at 10 uM*": 90}, {"smiles": "CN(c1ccc(-c2cc(C(=O)O)ncn2)cc1Cl)C1CC1", "note": "[6-{3-chloro-4-[cyclopropyl(methyl)amino]phenyl}pyrimidine-4-carboxylic acid]", "% Inhibition at 10 uM*": 96}, {"smiles": "O=S(=O)(Nc1cc(-c2ccc(OC3CC3)c(Cl)c2)ncn1)c1ccccc1F", "note": "[N-[6-(3-chloro-4-cyclopropoxyphenyl)pyrimidin-4-yl]-2-fluorobenzene-1-sulfonamide]", "% Inhibition at 10 uM*": 96}, {"smiles": "O=S(=O)(Nc1cc(-c2ccc(OC3CC3)c(Cl)c2)ncn1)c1ccc(OC(F)(F)F)cc1", "note": "[N-[6-(3-chloro-4-cyclopropoxyphenyl)pyrimidin-4-yl]-4-(trifluoromethoxy)benzene-1-sulfonamide]", "% Inhibition at 10 uM*": 88}, {"smiles": "O=S(=O)(Nc1cc(-c2ccc(OC3CC3)c(Cl)c2)ncn1)c1ccc(F)cc1", "note": "[N-[6-(3-chloro-4-cyclopropoxyphenyl)pyrimidin-4-yl]-4-fluorobenzene-1-sulfonamide]", "% Inhibition at 10 uM*": 98}, {"smiles": "O=S(=O)(Nc1cc(-c2ccc(OC3CC3)c(Cl)c2)ncn1)c1ccccc1", "note": "[N-[6-(3-chloro-4-cyclopropoxyphenyl)pyrimidin-4-yl]benzenesulfonamide]", "% Inhibition at 10 uM*": 73}, {"smiles": "O=S(=O)(Nc1cc(-c2ccc(OC3CC3)c(Cl)c2)ncn1)C1CC1", "note": "[N-[6-(3-chloro-4-cyclopropoxyphenyl)pyrimidin-4-yl]cyclopropanesulfonamide]", "% Inhibition at 10 uM*": 33}]}]}
